Experiment [1] has as its target T1, Peroxisome proliferator-activated receptor alpha (Homo sapiens) (UniProt Q07869).
T1 sequence (whole entry): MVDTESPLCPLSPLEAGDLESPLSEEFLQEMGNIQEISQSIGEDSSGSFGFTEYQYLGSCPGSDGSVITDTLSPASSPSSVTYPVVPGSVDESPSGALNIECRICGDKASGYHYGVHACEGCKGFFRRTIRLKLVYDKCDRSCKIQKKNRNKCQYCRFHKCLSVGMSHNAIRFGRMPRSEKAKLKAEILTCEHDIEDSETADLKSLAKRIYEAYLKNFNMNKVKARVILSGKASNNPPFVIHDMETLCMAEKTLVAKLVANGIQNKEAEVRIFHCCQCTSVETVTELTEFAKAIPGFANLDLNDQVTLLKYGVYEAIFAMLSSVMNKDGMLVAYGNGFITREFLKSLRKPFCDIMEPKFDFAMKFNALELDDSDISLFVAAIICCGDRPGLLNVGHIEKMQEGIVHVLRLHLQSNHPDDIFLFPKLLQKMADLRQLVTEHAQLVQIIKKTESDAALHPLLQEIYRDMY
Kind of experiment: Agonist activity at human PPARalpha-Gal4 in HEK293 cells by luciferase reporter assay relative to (S)-2-{2-[1-ethyl-3-(4-trifluoro-methoxyphenyl)ureido]indan-5-ylsulfanyl}-2-methylpropionic acid. The format is functional, cell-based. (In general: Reporter assays use an easily measured gene product as a stand-in for the process of interest.)

Experiment [2] has as its target T2, Peroxisome proliferator-activated receptor delta (Homo sapiens, UniProt Q03181).
T2 sequence (Q03181 whole entry): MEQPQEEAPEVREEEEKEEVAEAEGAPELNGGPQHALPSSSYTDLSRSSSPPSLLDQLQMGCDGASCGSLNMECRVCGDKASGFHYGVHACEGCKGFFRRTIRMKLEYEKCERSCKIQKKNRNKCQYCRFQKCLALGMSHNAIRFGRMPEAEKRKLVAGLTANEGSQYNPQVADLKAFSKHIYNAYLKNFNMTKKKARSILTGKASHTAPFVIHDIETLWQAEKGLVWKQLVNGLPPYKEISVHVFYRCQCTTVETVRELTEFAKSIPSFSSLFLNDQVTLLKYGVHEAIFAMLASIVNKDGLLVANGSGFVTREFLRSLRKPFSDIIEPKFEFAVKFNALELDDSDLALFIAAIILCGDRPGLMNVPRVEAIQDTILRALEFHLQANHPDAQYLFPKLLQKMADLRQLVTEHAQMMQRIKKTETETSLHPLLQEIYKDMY
Kind of experiment: Agonist activity at human PPARdelta-Gal4 in HEK293 cells by luciferase reporter assay. It is filed as functional, cell-based.

Experiment [3] deals with T3, Peroxisome proliferator-activated receptor gamma (Homo sapiens, UniProt P37231).
T3 sequence (P37231 whole entry): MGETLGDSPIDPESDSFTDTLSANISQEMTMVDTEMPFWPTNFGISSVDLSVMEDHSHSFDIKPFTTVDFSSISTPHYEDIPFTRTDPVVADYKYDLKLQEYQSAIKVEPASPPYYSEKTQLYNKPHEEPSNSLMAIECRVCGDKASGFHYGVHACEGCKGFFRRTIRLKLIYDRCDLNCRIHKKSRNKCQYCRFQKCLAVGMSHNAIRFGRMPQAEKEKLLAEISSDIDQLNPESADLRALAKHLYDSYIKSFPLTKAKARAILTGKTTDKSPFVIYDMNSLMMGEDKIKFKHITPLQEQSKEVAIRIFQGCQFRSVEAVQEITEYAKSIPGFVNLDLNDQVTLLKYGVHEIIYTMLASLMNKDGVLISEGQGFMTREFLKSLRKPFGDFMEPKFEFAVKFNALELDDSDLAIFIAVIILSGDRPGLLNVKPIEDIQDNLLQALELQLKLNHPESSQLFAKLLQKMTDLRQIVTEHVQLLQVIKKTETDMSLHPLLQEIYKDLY
The experiment in a line: Agonist activity at human PPARgamma-Gal4 in HEK293 cells by luciferase reporter assay. The format is functional, cell-based.

Experiment [4] addresses T4, Peroxisome proliferator-activated receptor alpha (Homo sapiens, UniProt Q07869).
T4 sequence (Q07869 whole entry): T1 sequence (whole entry)
Kind of experiment: Agonist activity at human PPARalpha-Gal4 in HEK293 cells by luciferase reporter assay. It is filed as functional, cell-based.

The nature of experiment [5]: Activity at retinoic acid receptor.
Experiment [6] concerns the target T5, Bile acid receptor (Homo sapiens) (UniProt Q96RI1).
T5 sequence (whole entry): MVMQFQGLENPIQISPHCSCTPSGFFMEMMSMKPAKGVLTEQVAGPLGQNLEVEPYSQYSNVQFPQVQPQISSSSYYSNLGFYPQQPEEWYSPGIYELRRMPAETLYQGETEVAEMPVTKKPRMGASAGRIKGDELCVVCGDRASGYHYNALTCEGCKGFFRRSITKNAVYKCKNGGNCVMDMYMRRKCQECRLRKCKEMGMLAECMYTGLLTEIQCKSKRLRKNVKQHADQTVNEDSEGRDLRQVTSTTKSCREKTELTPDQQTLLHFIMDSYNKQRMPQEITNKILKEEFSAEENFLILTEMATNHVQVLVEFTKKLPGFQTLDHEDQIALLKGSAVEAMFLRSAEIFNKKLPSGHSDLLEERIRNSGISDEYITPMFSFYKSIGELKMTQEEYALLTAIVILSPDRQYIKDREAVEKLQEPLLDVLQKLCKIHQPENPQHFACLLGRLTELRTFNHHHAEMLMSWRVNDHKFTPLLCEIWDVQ
The experiment in a line: Activity at farnesoid X receptor.

Experiment [7] in a line: Activity at liver X receptor.
The nature of experiment [8]: Activity at retinoic acid X receptor.
In experiment [9] the target is T6, Glucocorticoid receptor (Homo sapiens) (UniProt P04150).
T6 sequence (whole entry): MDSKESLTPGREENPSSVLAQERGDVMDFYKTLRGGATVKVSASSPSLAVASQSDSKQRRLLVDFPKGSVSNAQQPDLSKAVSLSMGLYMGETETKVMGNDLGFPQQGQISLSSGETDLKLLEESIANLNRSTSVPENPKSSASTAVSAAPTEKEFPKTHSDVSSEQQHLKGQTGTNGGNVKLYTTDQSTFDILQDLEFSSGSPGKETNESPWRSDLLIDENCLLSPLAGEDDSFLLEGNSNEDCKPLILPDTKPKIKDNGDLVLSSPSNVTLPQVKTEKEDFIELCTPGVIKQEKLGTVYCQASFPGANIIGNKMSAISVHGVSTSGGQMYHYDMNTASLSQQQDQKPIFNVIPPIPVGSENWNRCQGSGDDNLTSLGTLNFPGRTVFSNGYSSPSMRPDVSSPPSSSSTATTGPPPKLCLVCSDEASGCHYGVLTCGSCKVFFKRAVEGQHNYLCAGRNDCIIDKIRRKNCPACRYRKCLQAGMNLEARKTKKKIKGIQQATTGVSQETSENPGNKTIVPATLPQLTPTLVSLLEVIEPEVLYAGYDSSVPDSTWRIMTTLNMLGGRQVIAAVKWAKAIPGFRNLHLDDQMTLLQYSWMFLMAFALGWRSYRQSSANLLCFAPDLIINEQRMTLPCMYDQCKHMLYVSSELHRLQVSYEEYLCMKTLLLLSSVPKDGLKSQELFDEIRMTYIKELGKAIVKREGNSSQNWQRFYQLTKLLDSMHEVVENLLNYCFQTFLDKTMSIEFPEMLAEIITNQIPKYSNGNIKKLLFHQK
The experiment in a line: Activity at glucocorticoid receptor.

pEC50: −log10 of the molar value. The source made the active and inactive calls. No cut-off for these calls is given here.

Take `Cc1cc(OCc2nc(-c3ccc(OC(F)(F)F)c(Cl)c3)ns2)ccc1OC(C)(C)C(=O)O`: the Efficacy in [1] is 101%.
Compound `Cc1cc(SCc2nc(-c3ccc(C(F)(F)F)cc3)ns2)ccc1OC(C)(C)C(=O)O` registered an Efficacy in experiment [1] of 51%.
By pEC50 is commonly meant the negative decadic logarithm of the EC50, by convention in mol/L. Read a high pEC50 as a small EC50. The compound `Cc1cc(SCc2nc(-c3ccc(OC(F)(F)F)c(Cl)c3)ns2)ccc1OC(C)(C)C(=O)O` displayed an Efficacy in experiment [1] of 73%. This compound also gave a pEC50 in experiment [2] of 8.52.
In [1], `Cc1cc(SCc2nc(-c3ccc(C(F)(F)F)c(F)c3)ns2)ccc1OC(C)(C)C(=O)O` yielded an Efficacy of 53%. In experiment [2], the pEC50 is 8.30.
In the case of `Cc1cc(SCc2cc(-c3ccc(C(F)(F)F)cc3)sn2)ccc1OCC(=O)O`, in [1], the Efficacy is 43%.
Compound `Cc1cc(SCc2nc(-c3ccc(Cl)cc3)ns2)ccc1OC(C)(C)C(=O)O` gave an Efficacy in experiment [1] of 38%.
On the same count and under the same terms, next, `Cc1cc(SCc2nc(-c3ccc(C(F)(F)F)cc3)ns2)ccc1OCC(=O)O`: 42%.
Consider `Cc1ccc(-c2nsc(CSc3ccc(OC(C)(C)C(=O)O)c(C)c3)n2)cc1C`, for which the Efficacy in experiment [1] turned out to be 45%. Besides, in experiment [3], the negative logarithm of the EC50 (pEC50) was < 5.52.
In the case of `CC(C)(Oc1ccc(SCc2nc(-c3ccc(C(F)(F)F)cc3)ns2)cc1)C(=O)O`, the results for the pEC50 in experiment [4], in experiment [2] and in experiment [3] were 6.81, 7.70 and < 5.52, respectively.
As to `Cc1cc(OCc2nc(-c3ccc(Cl)c(Cl)c3)ns2)ccc1OC(C)(C)C(=O)O`, the Efficacy in experiment [1] was 83%.
On the same count and under the same terms, then `Cc1ccc(-c2nsc(COc3ccc(OC(C)(C)C(=O)O)c(C)c3)n2)cc1Cl`, with 75%; and `Cc1cc(SCc2nc(-c3ccc(OC(F)(F)F)cc3)ns2)ccc1OC1(C(=O)O)CCCC1`, with 31%.
For `Cc1cc(SCc2nc(-c3ccc(OC(F)(F)F)cc3)ns2)ccc1OC(C)(C)C(=O)O`, the outcome in experiment [5], in experiment [6], in experiment [7], in [8] and in [9] was inactive. In addition, the Efficacy in experiment [1] was 44%.
The compound `Cc1cc(SCc2nsc(-c3ccc(C(F)(F)F)cc3)n2)ccc1OC(C)(C)C(=O)O` came in with an Efficacy in experiment [1] of 38%.
`Cc1ccc(-c2nsc(COc3ccc(OC(C)(C)C(=O)O)c(C)c3)n2)cc1C` returned an Efficacy in experiment [1] of 58%.
For the compound `Cc1ccc(-c2nsc(CSc3ccc(OC(C)(C)C(=O)O)c(C)c3)n2)cc1Cl`, the pEC50 in experiment [4] is 7.15; in [2], 7.60. In experiment [1], this compound returned an Efficacy of 74%.
Compound `Cc1cc(OCc2nc(-c3ccc(C(F)(F)F)c(F)c3)ns2)ccc1OC(C)(C)C(=O)O` gave a pEC50 in [4] of 7.07. In experiment [1], this compound came in with an Efficacy of 65%.
The compound `Cc1cc(OCc2nc(-c3ccc(OC(F)(F)F)cc3)ns2)ccc1OC(C)(C)C(=O)O` came in with an Efficacy in [1] of 80%.
`Cc1cc(SCc2nc(-c3ccc(Cl)cc3Cl)ns2)ccc1OC(C)(C)C(=O)O` came in with an Efficacy in [1] of 33%.
Same read-out and setting: then `Cc1cc(SCc2cc(-c3ccc(C(F)(F)F)cc3)on2)ccc1OCC(=O)O`, with 41%; and `Cc1cc(SCCc2nc(-c3ccc(C(F)(F)F)cc3)ns2)ccc1OC(C)(C)C(=O)O`, with 65%.
In experiment [1], `Cc1cc(SCCc2nc(-c3ccc(Cl)c(Cl)c3)ns2)ccc1OC(C)(C)C(=O)O` came in with an Efficacy of 71%. Moreover, the pEC50 in experiment [2] was 8.05; in experiment [3], 6.09.
In experiment [1], `Cc1cc(SCc2nsc(-c3ccc(OC(F)(F)F)cc3)n2)ccc1OC(C)(C)C(=O)O` had an Efficacy of 47%.
The same measure, in the same setting: then `Cc1cc(OCc2nc(-c3ccc(C(F)(F)F)cc3)ns2)ccc1OC(C)(C)C(=O)O`, with 71%.
For `Cc1cc(SCc2cc(-c3ccc(C(F)(F)F)cc3)ns2)ccc1OCC(=O)O`, the pEC50 in experiment [4] is 5.89. In experiment [1], the Efficacy turned out to be 43%.
